Read-outs that look alike come from different tables or passages of the source.
What was measured:
[1] = target: T1, recombinant human RXR receptor (Homo sapiens, UniProt P19793); experiment: RXR mammalian two-hybrid assay
T1 sequence (P19793 1-462) 1: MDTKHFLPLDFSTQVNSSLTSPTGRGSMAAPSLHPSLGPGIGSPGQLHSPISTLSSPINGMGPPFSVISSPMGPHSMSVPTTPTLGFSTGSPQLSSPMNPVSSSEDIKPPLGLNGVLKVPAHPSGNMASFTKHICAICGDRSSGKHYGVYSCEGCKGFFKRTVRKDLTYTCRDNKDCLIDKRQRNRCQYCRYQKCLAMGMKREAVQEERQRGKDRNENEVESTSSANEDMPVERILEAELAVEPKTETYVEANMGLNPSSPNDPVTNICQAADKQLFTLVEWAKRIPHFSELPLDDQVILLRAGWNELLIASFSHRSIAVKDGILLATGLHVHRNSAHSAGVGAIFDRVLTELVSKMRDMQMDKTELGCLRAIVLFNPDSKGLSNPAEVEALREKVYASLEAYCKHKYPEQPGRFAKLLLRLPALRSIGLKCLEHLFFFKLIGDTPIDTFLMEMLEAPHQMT
T1 sequence (P19793 1-462) 2: T1 sequence (P19793 1-462) 1

[2] = target: T2, human RXRα (Homo sapiens, UniProt P19793); experiment: RXRE-mediated transcription assay; format: cell-based; details: 10^−7 M, 24 h
T2 sequence (P19793 1-462): T1 sequence (P19793 1-462) 1

[3] = system: RXR; details: Caco-2 colon cancer cells; cited from earlier work

## C=C(c1ccc(C(=O)O)c(Br)c1)c1cc2c(cc1C)C(C)(C)CCC2(C)C [Analog 14, 2-Bromo-4-(1-(1,2,3,4-tetrahydro-1,1,4,4,6-pentamethylnaphthalen-7-yl)vinyl)benzoic acid]
[1]
  EC50: 150 nM

## C=C(c1cc(F)c(C(=O)O)c(F)c1)c1cc2c(cc1C)C(C)(C)CCC2(C)C [Analog 18, 2,6-difluoro-4-(1-(1,2,3,4-tetrahydro-1,1,4,4,6-pentamethylnaphthalen-7-yl)vinyl)benzoic acid]
[2]; Caco-2 and HCT-116 cells
  RXR homodimer-mediated transcription compared with ethanol vehicle: significantly better than that of the ethanol vehicle

## C=C(c1ccc(C(=O)O)c(Cl)c1)c1cc2c(cc1C)C(C)(C)CCC2(C)C [Analog 12, 2-Chloro-4-(1-(1,2,3,4-tetrahydro-1,1,4,4,6-pentamethylnaphthalen-7-yl)vinyl)benzoic acid]
[1]
  EC50: 90 nM

## C=C(c1ccc(C(=O)O)c(F)c1)c1cc2c(cc1C)C(C)(C)CCC2(C)C [Compound 11, 2-fluoro-4-(1-(1,2,3,4-tetrahydro-1,1,4,4,6-pentamethylnaphthalen-7-yl)vinyl)benzoic acid]
[3]
  RXR activation compared with 1: slightly higher RXR activation

## Cc1cc2c(cc1C(=O)c1cc(F)c(C(=O)O)c(F)c1)C(C)(C)CCC2(C)C [Analog 19, 2,6-Difluoro-4-(1-(3,5,5,8,8-pentamethyl-5,6,7,8-tetrahydronaphthalen-2-yl)carbonyl)benzoic acid]
[1]; read-out: EC50 value, transfected HCT-116 cells, full dose-response curves 10^−10 to 10^−5 M, ± S.D.
  EC50: 550 nM

## Cc1cc2c(cc1C(=O)c1ccc(C(=O)O)c(I)c1)C(C)(C)CCC2(C)C [Compound 17, 2-Iodo-4-(1-(3,5,5,8,8-pentamethyl-5,6,7,8-tetrahydronaphthalen-2-yl)carbonyl)benzoic acid]
[2]; Caco-2 cells
  RXR homodimer-mediated transcription compared with ethanol vehicle: not able to activate transcription
[2]; HCT-116 cells
  RXR homodimer-mediated transcription compared with ethanol vehicle: significant activity

## C=C(c1ccc(C(=O)O)c(I)c1)c1cc2c(cc1C)C(C)(C)CCC2(C)C [Analog 16, 2-Iodo-4-(1-(1,2,3,4-tetrahydro-1,1,4,4,6-pentamethylnaphthalen-7-yl)vinyl)benzoic acid]
[1]
  EC50: 280 nM
[1]; 10^−7 M, 24 h, independent of the cell line (Caco-2 and HCT-116)
  RXR binding and homodimerization, % of the parent compound 1 efficiency: ~20%
